According to patent US10457681B2, “Toll-like receptor 7 (TLR7) agonists having a tricyclic moiety, conjugates thereof, and methods and uses therefor” (BRISTOL-MYERS SQUIBB COMPANY, priority 2017, dated 2019):

How the values were obtained:
human TLR7 = human TLR7 (Homo sapiens (Human), UniProt Q9NYK1); experiment: HEK-Blue TLR7 reporter assay (TLR7 agonist activity); format: cell-based; conditions: HEK-Blue TLR7 cells, SEAP reporter, 18 h treatment; read-out: TLR7 Agonism (EC50)
Procedure: This example describes a method for assaying TLR7 agonist activity of the compounds disclosed in this specification.
HEK-Blue™ TLR7 cells were added to each well of a 384-well tissue-culture plate (15,000 cells per well) and incubated 16-18 h at 37° C., 5% CO2. Compounds (100 nl) were dispensed into wells containing the HEK-Blue™ TLR cells and the treated cells were incubated at 37° C., 5% CO2. After 18 h treatment ten microliters of freshly-prepared Quanti-Blue™ reagent (Invivogen) was added to each well, incubated for 30 min (37° C., 5% CO2) and SEAP levels measured using an Envision plate reader (OD=620 nm).

interleukin 6 (IL-6) = experiment: Interleukin 6 induction assay in human whole blood; format: cell-based; conditions: 37° C., 20 h, AlphaLISA
Procedure: This example describes a method for assaying interleukin 6 induction by compounds disclosed in this specification.
Compounds diluted in DMSO were transferred to individual wells of a Matrix Technologies clear, V-bottom 384-well plate using ECHO acoustic liquid handling technology (25 nL per well). Human whole-blood samples (25 uL) were added to each well using a CyBio FeliX liquid handling instrument. The plate was shaken on a plate shaker for three min before incu-bating the reaction mixtures at 37° C. for 20 h. Basel RPMI 1640 medium (supplemented with L-glutamine) was then added to each well (25 uL per well) prior to liberating plasma from each sample by centrifugation (450×g, 5 min, ambient temperature). Treated plasma samples (3 uL) were subsequently transferred to individual wells of a white, shallow, 384-well ProxiPlate (Perkin Elmer) using the FeliX liquid handling instrument and their interleukin 6 levels were measured using AlphaLISA technology as described by the manufacturer, PerkinElmer. Data analyses software was used to determine compound EC50 values where the baseline was established using average DMSO values and 100% induction established using reference compound values at the highest concentration tested. EC50's can be determined with software such as Graphpad Prism™.

IFN-α = conditions: fold lower potency vs corresponding purine-8-one compound; cited from earlier work

Chain of human TLR7 (Q9NYK1 27-1049): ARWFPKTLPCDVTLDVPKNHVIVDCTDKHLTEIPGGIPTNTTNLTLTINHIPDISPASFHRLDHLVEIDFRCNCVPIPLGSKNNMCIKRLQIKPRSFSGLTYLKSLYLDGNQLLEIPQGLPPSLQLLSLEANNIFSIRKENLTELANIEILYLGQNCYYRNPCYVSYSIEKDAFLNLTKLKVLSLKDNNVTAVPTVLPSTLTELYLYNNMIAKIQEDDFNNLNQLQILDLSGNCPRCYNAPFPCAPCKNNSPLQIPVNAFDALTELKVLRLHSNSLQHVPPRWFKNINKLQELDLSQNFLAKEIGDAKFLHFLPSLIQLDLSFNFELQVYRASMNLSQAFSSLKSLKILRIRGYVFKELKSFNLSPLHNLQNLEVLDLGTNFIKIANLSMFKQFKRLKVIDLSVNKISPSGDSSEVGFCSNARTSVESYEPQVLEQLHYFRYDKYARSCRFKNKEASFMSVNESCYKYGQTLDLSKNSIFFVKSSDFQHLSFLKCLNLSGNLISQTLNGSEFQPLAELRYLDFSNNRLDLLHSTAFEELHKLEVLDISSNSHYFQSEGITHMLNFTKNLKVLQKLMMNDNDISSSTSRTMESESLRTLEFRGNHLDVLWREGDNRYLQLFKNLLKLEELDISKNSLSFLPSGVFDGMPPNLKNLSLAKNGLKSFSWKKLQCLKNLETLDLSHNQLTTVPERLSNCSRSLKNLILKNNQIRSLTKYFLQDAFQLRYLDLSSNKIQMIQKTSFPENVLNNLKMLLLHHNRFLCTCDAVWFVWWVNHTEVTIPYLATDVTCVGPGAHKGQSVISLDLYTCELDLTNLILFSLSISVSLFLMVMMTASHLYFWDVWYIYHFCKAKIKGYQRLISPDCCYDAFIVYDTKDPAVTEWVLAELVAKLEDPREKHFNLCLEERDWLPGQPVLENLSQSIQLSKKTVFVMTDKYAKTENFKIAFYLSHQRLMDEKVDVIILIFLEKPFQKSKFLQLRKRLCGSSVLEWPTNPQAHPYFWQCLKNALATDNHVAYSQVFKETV

Row | EC50 (human TLR7) [nM] | EC50 (interleukin 6 (IL-6)) [nM] | SMILES | potency less than that of the corresponding purine-8-one compound, as measured by IFN-α induction (IFN-α) [×]
1 | 8.5 | 14.4 | CCCCOc1nc(N)c2nc(O)n(Cc3ccc4c(c3)Sc3cc(CNCc5ccccc5)ccc3N4C)c2n1 [Ia-03] | –
2 | 7.9 | – | CCCCOc1nc(N)c2nc(O)n(Cc3ccc4c(c3)Sc3cc(CNCc5ccncc5)ccc3N4C)c2n1 [Ia-07] | –
3 | 1200 | – | CCCCOc1nc(N)c2c(n1)N(Cc1cccc(CN3CCCC3)c1)CC(=O)N2 [Vesatolimod, vesatolimod, reference compound] | 100
4 | 50 | 250 | CCCCOc1nc(N)c2nc(O)n(Cc3ccc4c(c3)Sc3cc(CO)ccc3N4C)c2n1 [Ia-01] | –
5 | 93 | 750 | CCCCOc1nc(N)c2nc(O)n(Cc3ccc4c(c3)Sc3cc(CNC5CCC5)ccc3N4C)c2n1 [Ia-06] | –
6 | 39 | 48 | CCCCOc1nc(N)c2nc(O)n(Cc3ccc4c(c3)Sc3cc(CNC)ccc3N4C)c2n1 [Ia-04] | –
7 | 580 | – | CCCCOc1nc(N)c2nc(O)n(Cc3ccc4c(c3)Sc3cc(CNC5COC5)ccc3N4C)c2n1 [Ia-05] | –
8 | 474 | – | CCCCOc1nc(N)c2nc(O)n(Cc3ccccc3)c2n1 [Compound B, reference compound] | –
9 | 4.7 | 4.9 | CCCCOc1nc(N)c2nc(O)n(Cc3ccc4c(c3)Sc3cc(CNC(C)C)ccc3N4C)c2n1 [Ia-02] | –
